Assay results as given in patent US20240016787A1, “METHODS FOR TREATMENT OF CANCER AND PHAGOCYTOSIS-DEFICIENCY RELATED DISEASES” (RDiscovery, LLC, priority 2020, published 2024).

Tests used:
[1] = system: Capan-1 human pancreatic ductal adenocarcinoma cells; test: Subcutaneous Capan-1 pancreatic cancer xenograft model in female BALB/c nude mice; format: in vivo
Experimental: A study of the in vivo therapeutic efficacy of cilnidipine as a single agent or in combination with gemcitabine in the treatment of the subcutaneous Capan-1 pancreatic cancer xenograft model in female BALB/c nude mice was performed.
Female BALB/c nude mice 7-9 weeks of age were used in the study.
Capan-1 human pancreatic ductal adenocarcinoma cells were cultured in IMEM medium with 20% FBS at 37° C. and 5% CO2 in air atmosphere.
Each mouse was inoculated subcutaneously in the right upper flank region with tumor cells (5×10^6 cells) in 0.1 ml of PBS with Matrigel (1:1) for tumor development.
Randomization was started when the mean tumor size reached approximately 254.27 mm^3. A total of 48 mice were enrolled in the study and randomly allocated to the six study groups, with eight mice per group. Randomization was performed based on “Matched distribution” method (Study Director™ software, version 3.1.399.19). The date of randomization was denoted as day 0.
After tumor inoculation, the animals were checked daily for morbidity and mortality. During routine monitoring, the animals were checked for any effects of tumor growth and treatments on behavior such as mobility, food and water consumption, body weight gain/loss (body weights were measured twice per week after randomization), eye/hair matting and any other abnormalities. Mortality and observed clinical signs were recorded for individual animals in detail.
Tumor volumes were measured twice per week after randomization in two dimensions using a caliper, and the volume was expressed in mm^3 using the formula: V=(L×W×W)/2, where V is tumor volume, L is tumor length (the longest tumor dimension) and W is tumor width (the longest tumor dimension perpendicular to L). Dosing as well as tumor and body weight measurements were conducted in a Laminar Flow Cabinet. Body weights and tumor volumes were measured by using Study Director™ software (version 3.1.399.19).
The vehicle used for cilnidipine was 5% DMSO and corn oil. The vehicle used for gemcitabine was saline. Dosing volume was adjusted for body weight (dosing volume=5/10 μL/g). Treatments were initiated on day 0 following randomization.
The study was planned so that (1) mice showing a body weight loss (BWL)>20% after one measurement would be sacrificed, (2) mice showing BWL>15% after one measurement would be given a dosing holiday in a separate cage alone with daily monitoring for 72 hours, while other mice in the same group would receive dosing as scheduled, with treatment of the isolated mouse resuming when the BWL had recovered to BWL<10%, and (3) mice showing a BWL>10% would receive supplemental gel. BWL was calculated based on the BW on the first day of treatment.
The study endpoint was tumor growth inhibition (TGI). […] TGI is expressed as: TGI (%)=100×(1−T/C). […]

[2] = system: mdx mouse; test: mdx mouse model of Duchenne muscular dystrophy (DMD); format: in vivo; details: mdx mice, vs MDX-Vehicle
Experimental: The effect of cilnidipine and the cilnidipine derivative NS4-043 in the mdx mouse model of Duchenne muscular dystrophy (DMD) model was evaluated. The mdx mouse has a point mutation in its DMD gene, changing the amino acid coding for a glutamine to a stop codon, which causes the muscle cells to produce a small, nonfunctional dystrophin protein.
Animals were dosed once daily with vehicle, idebenone or cilnidipine on study days: 0 to 20.
Mice were evaluated by a rotarod test on study days 19 and 20. Body weight was measured throughout the study period. […] (CK) and […] (LDH), two biomarkers of DMD, were measured on day 21.

[3] = system: J774.1 mouse macrophage cell line; test: In vitro phagocytosis of PE-labeled polystyrene beads by macrophages (flow cytometry); format: cell-based; details: 0.3 μM, 1 μM, or 3 μM for 20 hours; beads 2.5 hours; vs DMSO vehicle
Experimental: The effect of cilnidipine on phagocytosis by macrophages was evaluated in vitro using the J774.1 mouse macrophage cell line. Cells were seeded at 2×10^5 cells/well/200 μL of a 48 well plate and cultured for 24 hours in DMEM medium containing 10% FBS and antibiotics at 37° C. under 5% CO2. Cells were washed once and then incubated with cilnidipine at concentrations 0.3 μM, 1 μM, or 3 μM, or DMSO (vehicle) for 20 hours.
The level of phagocytosis was evaluated by adding 10 μL of DMEM medium containing 4×10^6 PE-labeled polystyrene beads (Fluoresbrite® Polychromatic Red Microspheres 2.0 μm) to cells and culturing them for 2.5 hours. Cells were then washed 3 times with PBS and collected. The level of phagocytic activity was assessed by flow cytometry, measuring the amount of fluorescent signal derived from the PE-labelled beads that were taken up by the cells, with cells treated with 0.1% DMSO used as negative control. The proportions of cells engulfing 1 or more, 2 or more, 3 or more, and 4 or more particles were measured.

[4] = system: pancreatic and melanoma cancer cell lines; test: Anti-proliferative effects on cancer cell lines in vitro; format: cell-based; details: AsPC-1, Capan-1, KP4, MIA PaCa-2, BxPC-3, A375, SK-MEL-28, MeWo
Experimental: The effect of cilnidipine on cell proliferation of eight cancer cell lines is evaluated. Five pancreatic cancer cell lines are included, four containing KRAS mutations (AsPC-1 (G12D), Capan-1 (G12V), KP4 (M188V, G12D) and MIA PaCa-2 (G12C)), and one pancreatic cancer cell line with wild type KRAS, BxPC-3, in addition to three melanoma cell lines, two of which contain B-Raf mutations: A375 (V600E) and SK-MEL-28 (V600E), and one melanoma cell line with wild type B-Raf, MeWo.

[5] = system: MC38 cells, a murine colon adenocarcinoma cell line; test: In vivo anti-tumor effect in MC38 tumor-bearing C57BL/6 mice; parameters: species or system mouse; details: i.t. on days 10 and 14 after tumor inoculation; vs control mice
Experimental: The in vivo anti-tumor effect of cilnidipine is assessed in MC38 tumor-bearing C57BL/6 mice. Five or seven week old C57BL/6 mice are maintained under specific pathogen-free (SPF) conditions. Mice are injected subcutaneously with 5×10^5 MC38 cells, a murine colon adenocarcinoma cell line, and treated i.t. with cilnidipine on days 10 and 14 after tumor inoculation. Tumor volume is measured at the various time points.

[6] = 10 mg/kg once daily days 0 to 20, measured day 21
[7] = 200 mg/kg once daily days 0 to 20, measured day 21

Nc1ccn([C@@H]2O[C@H](CO)[C@@H](O)C2(F)F)c(=O)n1 [Gemcitabine]
Tumor Growth Inhibition (TGI) on Day 20, TGI vs G01 ([1]; Group 2: gemcitabine 30 mg/kg i.p. Q3D × 4): 15.273% | Tumor Growth Inhibition (TGI) on Day 20, TGI vs G01 ([1]; Group 3: gemcitabine 100 mg/kg i.p. Q3D × 4): 30.717%

COCCOC(=O)C1=C(C)NC(C)=C(C(=O)OC/C=C/c2ccncc2)C1c1ccccc1[N+](=O)[O-] (stereo not drawn) [NS4-043]
plasma LDH [2, 6]: did not significantly decrease plasma LDH

COC1=C(OC)C(=O)C(CCCCCCCCCCO)=C(C)C1=O [Idebenone]
plasma CK [2, 7]: but not idebenone, significantly suppressed plasma CK | plasma LDH [2, 7]: significantly decreased plasma LDH

COCCOC(=O)C1=C(C)NC(C)=C(C(=O)OC/C=C/c2ccccc2)C1c1cccc([N+](=O)[O-])c1 (stereo not drawn) [Cilnidipine]
phagocytic activity of macrophages [3]: enhanced phagocytic activity of macrophages in a dose dependent manner | anti-proliferative effect on cancer cell lines [4]: has an anti-proliferative effect on the cell lines | tumor growth [5]: reduces tumor growth as compared to control mice | plasma CK [2, 6]: significantly suppressed plasma CK | plasma LDH [2, 6]: significantly decreased plasma LDH | Tumor Growth Inhibition (TGI) on Day 20, TGI vs G01 ([1]; Group 4: cilnidipine 10 mg/kg p.o. QD × 21 days): 9.014% | Tumor Growth Inhibition (TGI) on Day 20, TGI vs G01 ([1]; Group 4: cilnidipine 10 mg/kg p.o. QD × 21 days, listed as cilnidipine): 9.01%
